The source made the active and inactive calls. The calls are words filed in the database; no cut-off is given here.
What was measured:
[1] = biological target: T1, Kappa-type opioid receptor (Homo sapiens, UniProt P41145); test: Binding affinity to human kappa-opioid receptor extracted from CHO cell membrane assessed as inhibition constant incubated for 60 mins in presence of [3H]U69593 by radioligand binding assay; assay type: cell membranes
Mu-type opioid receptor = Mu-type opioid receptor (Rattus norvegicus, UniProt P33535); test: (§1) Displacement of [3H] DAMGO from rat mu-opioid receptor extracted from CHO cell membrane assessed as inhibition constant by liquid scintillation counting analysis; assay type: cell membranes
[2] = biological target: T1, Kappa-type opioid receptor; test: Displacement of [3H] U69593 from human kappa-opioid receptor extracted from CHO cell membrane assessed as inhibition constant by liquid scintillation counting analysis; assay type: cell membranes
[3] = biological target: Delta-type opioid receptor (Rattus norvegicus, UniProt P33533); test: (§2) Displacement of [3H] DPDPE from rat delta-opioid receptor extracted from CHO cell membrane assessed as inhibition constant by liquid scintillation counting analysis; assay type: cell membranes
[4] = biological target: Delta-type opioid receptor (Rattus norvegicus) (UniProt P33533); test: Displacement of [3H] DPDPE from rat delta-opioid receptor extracted from CHO cell membrane at 0.1 uM by liquid scintillation counting analysis relative to control; assay type: cell membranes
[5] = Drug uptake in mouse plasma; assay type: ADME, cell-free
[6] = biological target: Mu-type opioid receptor (Rattus norvegicus) (UniProt P33535); test: Displacement of [3H] DAMGO from rat mu-opioid receptor extracted from CHO cell membrane at 0.1 uM by liquid scintillation counting analysis relative to control; assay type: cell membranes
[7] = biological target: T1, Kappa-type opioid receptor; test: Displacement of [3H] U69593 from human kappa-opioid receptor extracted from CHO cell membrane at 0.1 uM by liquid scintillation counting analysis relative to control; assay type: cell membranes
[8] = biological target: Mu-type opioid receptor (Rattus norvegicus) (UniProt P33535); test: as §1; assay type: cell membranes
[9] = Metabolic stability in mouse liver microsomes assessed as half life at 1 uM measured upto 60 mins in presence of NADPH by LC-MS/MS analysis; assay type: ADME, Microsome
[10] = Metabolic stability in mouse liver microsomes assessed as intrinsic clearance at 1 uM measured upto 60 mins in presence of NADPH by LC-MS/MS analysis; assay type: ADME, Microsome; settings: read-out: CLH
[11] = Metabolic stability in mouse liver assessed as intrinsic clearance at 1 uM measured upto 60 mins in presence of NADPH by LC-MS/MS analysis; assay type: ADME, tissue-based; settings: read-out: CLH
[12] = biological target: Delta-type opioid receptor (Rattus norvegicus) (UniProt P33533); test: as §2; assay type: cell membranes
[13] = Half-life in ICR mouse at 2 mg/kg, iv measured after 24 hrs; assay type: ADME, organism-based; settings: in vivo
[14] = Half-life in ICR mouse at 5 mg/kg, po measured after 24 hrs; assay type: ADME, organism-based; settings: in vivo
[15] = Tmax in ICR mouse at 2 mg/kg, iv measured after 24 hrs; assay type: ADME, organism-based; settings: in vivo
[16] = Tmax in ICR mouse at 5 mg/kg, po measured after 24 hrs; assay type: ADME, organism-based; settings: in vivo
[17] = Cmax in ICR mouse at 2 mg/kg, iv measured after 24 hrs; assay type: ADME, organism-based; settings: in vivo
[18] = Cmax in ICR mouse at 5 mg/kg, po measured after 24 hrs; assay type: ADME, organism-based; settings: in vivo
[19] = AUC (0 to t) in ICR mouse at 2 mg/kg, iv measured after 24 hrs; assay type: ADME, organism-based; settings: in vivo
[20] = AUC (0 to t) in ICR mouse at 5 mg/kg, po measured after 24 hrs; assay type: ADME, organism-based; settings: in vivo
[21] = AUC (0 to infinity) in ICR mouse at 2 mg/kg, iv measured after 24 hrs; assay type: ADME, organism-based; settings: in vivo
[22] = AUC (0 to infinity) in ICR mouse at 5 mg/kg, po measured after 24 hrs; assay type: ADME, organism-based; settings: in vivo
[23] = Clearance in ICR mouse at 2 mg/kg, iv measured after 24 hrs; assay type: ADME, organism-based; settings: in vivo
[24] = Oral bioavailability in ICR mouse at 5 mg/kg measured after 24 hrs; assay type: ADME, organism-based; settings: in vivo
[25] = Metabolic stability in mouse liver microsomes assessed as parent compound remaining at 1 uM measured after 5 min in presence of NADPH by LC-MS/MS analysis; assay type: ADME, Microsome; settings: read-out: Stability
[26] = Metabolic stability in mouse liver microsomes assessed as parent compound remaining at 1 uM measured after 15 min in presence of NADPH by LC-MS/MS analysis; assay type: ADME, Microsome; settings: read-out: Stability
[27] = Metabolic stability in mouse liver microsomes assessed as parent compound remaining at 1 uM measured after 30 min in presence of NADPH by LC-MS/MS analysis; assay type: ADME, Microsome; settings: read-out: Stability
[28] = Metabolic stability in mouse liver microsomes assessed as parent compound remaining at 1 uM measured after 60 min in presence of NADPH by LC-MS/MS analysis; assay type: ADME, Microsome; settings: read-out: Stability
Mus musculus [29] = test: Antinociceptive activity in acetic acid induced female Kunming mouse model assessed as reduction in number of torsions preadministered for 30 mins followed by acetic acid administration and measured after 15 mins by abdominal contraction test; assay type: functional; settings: 0.75 h, time 45 min
Mus musculus [30] = test: Antinociceptive activity in acetic acid induced female Kunming mouse model assessed as reduction in number of torsions preadministered with nor-BNI for 24 hrs followed by compound administration for 30 mins and measured after 15 mins of acetic acid administration by abdominal contraction test; assay type: functional, organism-based; settings: time 45.0 min
[31] = Toxicity in male Kunming mouse assessed as effect on sedation at 1.3 to 10 mg/kg, IP administered for 30 mins and measured after 1 hrs by open field test; assay type: organism-based; settings: in vivo, 1.5 h, dose 1.3-10 mg/kg, time 90 min

T1 sequence (P41145 whole entry): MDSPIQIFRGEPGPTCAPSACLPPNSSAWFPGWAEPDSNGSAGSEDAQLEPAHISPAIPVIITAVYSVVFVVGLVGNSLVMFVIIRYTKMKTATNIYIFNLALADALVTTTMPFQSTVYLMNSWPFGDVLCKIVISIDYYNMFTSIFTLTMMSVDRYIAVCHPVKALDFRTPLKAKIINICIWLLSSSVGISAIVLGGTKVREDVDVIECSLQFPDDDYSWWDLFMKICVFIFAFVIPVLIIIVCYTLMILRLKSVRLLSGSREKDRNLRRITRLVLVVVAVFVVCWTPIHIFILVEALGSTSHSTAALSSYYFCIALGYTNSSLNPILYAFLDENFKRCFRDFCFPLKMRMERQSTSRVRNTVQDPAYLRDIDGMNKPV
Sequence of Mu-type opioid receptor (Rattus norvegicus) (P33535 whole entry): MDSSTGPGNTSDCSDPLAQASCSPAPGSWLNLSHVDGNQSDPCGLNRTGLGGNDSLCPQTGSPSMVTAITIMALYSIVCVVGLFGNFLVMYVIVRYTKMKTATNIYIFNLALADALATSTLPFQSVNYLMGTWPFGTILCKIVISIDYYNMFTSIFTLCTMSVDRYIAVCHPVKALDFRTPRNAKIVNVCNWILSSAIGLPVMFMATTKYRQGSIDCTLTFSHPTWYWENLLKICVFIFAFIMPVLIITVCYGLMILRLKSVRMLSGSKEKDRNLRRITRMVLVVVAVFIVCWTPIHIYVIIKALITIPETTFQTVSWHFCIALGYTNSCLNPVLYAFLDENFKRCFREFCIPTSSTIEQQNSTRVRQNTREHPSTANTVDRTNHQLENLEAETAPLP
Sequence of Delta-type opioid receptor (Rattus norvegicus) (P33533 whole entry): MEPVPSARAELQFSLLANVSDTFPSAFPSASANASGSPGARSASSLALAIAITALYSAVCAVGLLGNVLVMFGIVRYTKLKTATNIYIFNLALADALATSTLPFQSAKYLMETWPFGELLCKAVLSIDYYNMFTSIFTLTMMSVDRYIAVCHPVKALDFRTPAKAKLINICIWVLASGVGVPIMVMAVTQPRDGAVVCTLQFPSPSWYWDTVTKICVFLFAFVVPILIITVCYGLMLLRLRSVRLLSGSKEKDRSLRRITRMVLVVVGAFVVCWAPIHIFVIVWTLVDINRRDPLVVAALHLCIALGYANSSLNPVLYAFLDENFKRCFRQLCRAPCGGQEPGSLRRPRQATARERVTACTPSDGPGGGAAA
Sequence of Mu-type opioid receptor (P33535 whole entry): as the sequence (P33535 whole entry) above
Sequence of Delta-type opioid receptor (P33533 whole entry): as the sequence (P33533 whole entry) above

CN(C)C[C@@H]1CN(CCc2cccc(C(F)(F)F)c2)CC[C@@]1(O)c1cccc(O)c1
Ki [1]: 25.8 nM

CN(C)CC1CC(N(Cc2ccccc2)S(=O)(=O)c2cccc(Cl)c2)CCC1(O)c1cccc(O)c1.Cl (centres undefined)
Ki (Mu-type opioid receptor): 18.8 nM | Ki [2]: 3.1 nM | Ki [3]: 201 nM | inhibition [4]: 20.7% | Drug uptake [5]: Active

COc1cccc(C2(O)CCC(NS(=O)(=O)c3cccc(Cl)c3)CC2CN(C)C)c1 (centres undefined)
inhibition [6]: 22.8% | inhibition [4]: 0% | inhibition [7]: 15%

COc1cccc(C2(O)CCC(NS(=O)(=O)Cc3ccccc3)CC2CN(C)C)c1 (centres undefined)
inhibition [6]: 41.1% | inhibition [4]: 1% | inhibition [7]: 11.2%

COc1cccc(C2(OC(=O)c3ccccc3)CCC(N(C)S(=O)(=O)Cc3cccc(Cl)c3)CC2CN(C)C)c1 (centres undefined)
inhibition [6]: 0% | inhibition [4]: 0% | inhibition [7]: 16.6%

COc1cccc(C2(O)CCC(N(Cc3ccccc3)S(=O)(=O)c3cccs3)CC2CN(C)C)c1 (centres undefined)
inhibition [6]: 9.5% | inhibition [4]: 0% | inhibition [7]: 14.9%

COc1cccc(C2(OC(=O)c3ccccc3)CCC(N(C)S(=O)(=O)Cc3ccccc3)CC2CN(C)C)c1 (centres undefined)
inhibition [6]: 3.3% | inhibition [4]: 0% | inhibition [7]: 28.8%

COc1cccc(C2(O)CCC(N(Cc3ccccc3)S(=O)(=O)c3cccc(Cl)c3)CC2CN(C)C)c1 (centres undefined)
inhibition [6]: 6.7% | inhibition [4]: 0%

COc1cccc(C2(OC(=O)c3ccccc3)CCC(NS(=O)(=O)c3cccc(Cl)c3)CC2CN(C)C)c1 (centres undefined)
inhibition [6]: 14.4% | inhibition [4]: 0% | inhibition [7]: 30.5%

COc1cccc(C2(O)CCC(NS(=O)(=O)c3ccccc3)CC2CN(C)C)c1 (centres undefined)
inhibition [6]: 11.8% | inhibition [4]: 7.51% | inhibition [7]: 7.2%

COc1cccc(C2(O)CCC(N(Cc3ccccc3)S(=O)(=O)c3ccccc3)CC2CN(C)C)c1 (centres undefined)
inhibition [6]: 14.8% | inhibition [4]: 0% | inhibition [7]: 39.7%

COc1cccc(C2(O)CCC(N(C)S(=O)(=O)c3cccs3)CC2CN(C)C)c1 (centres undefined)
inhibition [6]: 0% | inhibition [4]: 30.1% | inhibition [7]: 22%

COc1cccc(C2(O)CCC(NS(=O)(=O)c3cccs3)CC2CN(C)C)c1 (centres undefined)
inhibition [6]: 1.2% | inhibition [4]: 0% | inhibition [7]: 15.2%

COc1cccc(C2(O)CCC(N(C)S(=O)(=O)c3ccccc3)CC2CN(C)C)c1 (centres undefined)
inhibition [6]: 38.6% | inhibition [4]: 12.9% | inhibition [7]: 15.3%

COc1cccc(C2(O)CCC(NS(=O)(=O)Cc3cccc(Cl)c3)CC2CN(C)C)c1 (centres undefined)
inhibition [6]: 35.8% | inhibition [4]: 0% | inhibition [7]: 6.9%

COc1cccc([C@]2(O)CC[C@@H](N(Cc3ccccc3)S(=O)(=O)c3cccc(Cl)c3)C[C@H]2CN(C)C)c1
Activity [8]: inactive | Activity [2]: inactive

O=C(O)Cc1ccccc1Nc1c(Cl)cccc1Cl [DICLOFENAC]
half-life at 1 µM [9]: 47.1 min | microsomal CLint at 1 µM [10]: 29.4 µL/min/mg | CLint scaled at 1 µM [11]: 116 mL/min/kg

COc1cccc(C2(O)CCCCC2CN(C)C)c1 (centres undefined)
inhibition [6]: 6% | inhibition [4]: 0% | inhibition [7]: 0%

COc1cccc([C@@]2(O)CC[C@H](N(Cc3ccccc3)S(=O)(=O)c3cccc(Cl)c3)C[C@@H]2CN(C)C)c1.Cl
Ki [2]: 1.9 nM | Activity [12]: inactive | half-life [13]: 71.4 min | half-life [14]: 16.2 min | Tmax [15]: 4.98 min | Tmax [16]: 4.98 min | Cmax [17]: 221 ng/mL | Cmax [18]: 3.87 ng/mL | AUC(0-t) at 24 h [19]: 131 ng·h/mL | AUC(0-t) at 24 h [20]: 1.34 ng·h/mL | AUC(0-inf) [21]: 136 ng·h/mL | AUC(0-inf) [22]: 1.64 ng·h/mL | clearance [23]: 246 mL/min/kg | bioavailability [24]: 0.53% | inhibition [6]: 25.8% | remaining at 5 min, 1 µM [25]: 29% | remaining at 0.25 h, 1 µM [26]: 6.7% | remaining at 0.5 h, 1 µM [27]: 5.89% | remaining at 1 h, 1 µM [28]: 4.59% | half-life at 1 µM [9]: 3.95 min | microsomal CLint at 1 µM [10]: 351 µL/min/mg | CLint scaled at 1 µM [11]: 1390 mL/min/kg | ED50 (Mus musculus [29]): 1.3 mg/kg | Activity (Mus musculus [30]): inactive | Activity [31]: Non-Toxic | Drug uptake [5]: Active

COc1cccc(C2(O)CCC(N(C)S(=O)(=O)c3cccc(Cl)c3)CC2CN(C)C)c1 (centres undefined)
inhibition [6]: 16.5% | inhibition [4]: 14.8% | inhibition [7]: 22.7%

COc1cccc(C2(OC(=O)c3ccccc3)CCC(NS(=O)(=O)c3ccccc3)CC2CN(C)C)c1 (centres undefined)
inhibition [6]: 18.1% | inhibition [4]: 0% | inhibition [7]: 12.9%
